Measured values reported in US4410514A, “GnRH Agonists” (The Salk Institute for Biological Studies, priority 1982, dated 1983).
Where a SMILES comes first, the peptide text is derived from it. [ ]: non-standard residue; d: D form. pGlu = O=C1CC[C@@H](C(=O)O)N1

Tested on: release of LH by the anterior pituitary in fish
Assay: in vivo salmon assay, radioimmunoassay for LH level in blood
Conditions: salmon of about 2 kg, about 10 μg injected per fish, blood taken about 2 hours after injection, same amount of mammalian GnRH as comparator
Experimental: The peptide is assayed in vivo using salmon having an average weight of about 2 kg, and each fish is injected with about 10 μg. Additional fish are injected with the same amount of mammalian GnRH. Both sets are then compared with controls. About 2 hours following injection, the salmon are sacrificed, and the blood withdrawn for specific radioimmunoassay for LH level.

SMILES: CCNC(=O)[C@@H]1CCCN1C(=O)[C@H](CC(C)C)NC(=O)[C@H](Cc1c[nH]c2ccccc12)NC(=O)[C@@H](C)NC(=O)[C@H](Cc1ccc(O)cc1)NC(=O)[C@H](CO)NC(=O)[C@H](Cc1c[nH]c2ccccc12)NC(=O)[C@H](Cc1c[nH]cn1)NC(=O)[C@@H]1CCC(=O)N1 [Peptide 1, pGlu--His--Trp--Ser--Tyr--D--Ala--Trp--Leu--Pro--NHCH2 CH3] ([pGlu]HWSY[dA]WLP-NHEt)
- potency in causing the release of LH by the anterior pituitary, compared with mammalian GnRH: substantially more potent than mammalian GnRH
